In brackets after ≈: the same amount, converted by molar mass. Several values for one entry are separate records, joined by “and”; a condition that tells them apart may be missing. Identical values can stand only once. Like-named read-outs stand apart in the source and are kept apart here.
Legend:
[1] = in vitro; conditions: rhesus monkey
[2] = system: Punta Toro A (LLC-MK2); assay: organism not typed; type: cell-based
[3] = system: BVDV; assay: Antiviral test (Table 8b); type: cell-based; conditions: Bovine viral diarrhea virus isolates and strains; table note: BHK for Bovine Viral Diarrhea Virus
[4] = Clinical pharmacokinetics of mCyd after oral val-mCyd; conditions: human, plasma, mCyd in plasma; for AUC(0-inf): AUC0-inf (Mean); for Cmax: Cmax (Mean); for Tmax: Tmax (Mean); for half-life: t1/2 (Mean)
[5] = Cytotoxicity (Table 10); conditions: dog, MDCK cells
[6] = system: DENV 2; assay: Antiviral test (Table 8b); type: cell-based; conditions: Dengue virus
[7] = system: BVDV I-NADL cp in MDBK cells; assay: Yield reduction assay; type: cell-based; conditions: Bovine viral diarrhea virus isolates and strains
Experimental: For each compound the concentration to obtain a 6-log reduction in viral load was determined in duplicate 24-well plates by yield reduction assays. The assay was performed as described by Baginski, S. G.; Pevear, D. C.; Seipel, M.; Sun, S. C. C.; Benetatos, C. A.; Chunduru, S. K.; Rice, C. M. and M. S. Collett “Mechanism of action of a pestivirus antiviral compound” PNAS USA 2000, 97(14), 7981-7986, with minor modifications. Briefly, MDBK cells were seeded onto 24-well plates (2×10^5 cells per well) 24 hours before infection with BVDV (NADL strain) at a multiplicity of infection (MOI) of 0.1 PFU per cell. Serial dilutions of test compounds were added to cells in a final concentration of 0.5% DMSO in growth medium. Each dilution was tested in triplicate. After three days, cell cultures (cell monolayers and supernatants) were lysed by three freeze-thaw cycles, and virus yield was quantified by plaque assay. Briefly, MDBK cells were seeded onto 6-well plates (5×10^5 cells per well) 24 h before use. Cells were inoculated with 0.2 mL of test lysates for 1 hour, washed and overlaid with 0.5% agarose in growth medium. After 3 days, cell monolayers were fixed with 3.5% formaldehyde and stained with 1% crystal violet (w/v in 50% ethanol) to visualize plaques. The plaques were counted to determine the concentration to obtain a 6-log reduction in viral load.

[8] = Cytotoxicity (cell proliferation) assay; conditions: rat, H9c2 myocardial cells
[9] = system: CVB-4; assay: microbe, parasite or virus in culture; type: cell-based, Coxsackievirus B-4; conditions: Coxsackievirus, read-out: EC50 CVB-4
[10] = system: DENV-2 in BHK cells; assay: Cell protection assay; type: cell-based; conditions: Dengue virus, DENV2, DENV-2, BHK
[11] = system: CVB-2; assay: Antiviral test (Tables 8b, 8c); type: cell-based, Coxsackievirus B-2; conditions: Coxsackievirus
[12] = system: HepG2 cells; assay: Mitochondria toxicity assay, lactic acid production
[13] = Cytotoxicity assay; conditions: mouse
[14] = Cytotoxicity (Table 10); conditions: human, HeLa-Ohio cells
[15] = system: BVDV RNA; assay: Intracellular BVDV RNA by Real Time RT-PCR in de novo-infected MDBK cells; type: cell-based; conditions: Bovine viral diarrhea virus isolates and strains, 18-hours post infection
[16] = system: rig S15 mRNA; assay: Cellular housekeeping mRNA control by RT-PCR in MDBK cells; type: cell-based, bovine; conditions: up to 125 μM
[17] = Cytotoxicity testing by NIH program; conditions: human and other mammalian
[18] = Cytotoxicity assay; conditions: human
[19] = system: REO-1; assay: Antiviral test (Tables 8b, 8c); type: cell-based, double-stranded RNA viruses
[20] = system: MCMV (MEF); assay: organism not typed; type: cell-based
[21] = system: EBV (Daudi); assay: microbe, parasite or virus in culture; type: cell-based; conditions: human gammaherpesvirus 4, Daudi
[22] = system: Yellow Fever virus; assay: microbe, parasite or virus in culture; type: cell-based; conditions: read-out: composite EC50 range, Yellow Fever virus
[23] = Cytotoxicity (Table 10); conditions: human, KB cells
[24] = system: West Nile virus; assay: microbe, parasite or virus in culture; type: cell-based; conditions: read-out: composite EC50 range, West Nile virus
[25] = Cytotoxicity (Table 10); type: cell-based; conditions: human, Daudi cells, EBV row
[26] = system: BVDV New York-1 ncp in MDBK cells; assay: Yield reduction assay; type: cell-based, bovine viral diarrhea virus
[27] = system: BVDV (strain NADL) in MDBK cells; assay: BVDV cell protection assay (CPA); type: cell-based; conditions: Bovine viral diarrhea virus isolates and strains
[28] = 50 mg, val-mCyd 50 mg PO, Day 1
[29] = 50 mg, val-mCyd 50 mg PO, Day 15
[30] = 100 mg, val-mCyd 100 mg PO, Day 1
[31] = 100 mg, val-mCyd 100 mg PO, Day 15

For CC1(O)C(O)C(CO)OC1n1ccc(N)nc1=O (stereo not shown) [mCyd, 4-Amino-1-(3,4-dihydroxy-5-hydroxymethyl-3-methyl-tetrahydro-furan-2-yl)-1H-pyrimidine-2-one], the CC50 [1] was over 200 µM, the EC50 [2] was over 200 µM and the EC50 [3] was 2.3 µM. For the same compound, the AUC(0-inf) [4, 28] was 3120 ng·h/mL, the AUC(0-inf) [4, 29] was 3170 ng·h/mL and the Cmax [4, 28] was 428 ng/mL. It also gave a Cmax [4, 29] of 363 ng/mL, a Tmax [4, 28] of 2.5 h and a Tmax [4, 29] of 2.2 h. The half-life [4, 28] was 4.1 h, the half-life [4, 29] was 4.6 h and the AUC(0-inf) [4, 30] was 6900 ng·h/mL. The AUC(0-inf) [4, 31] was 7670 ng·h/mL, the Cmax [4, 30] was 982 ng/mL and the Cmax [4, 31] was 1050 ng/mL. The Tmax [4, 30] was 2.6 h, the Tmax [4, 31] was 2 h and the half-life [4, 30] was 4.4 h. For the same compound, the half-life [4, 31] was 4.2 h, the CC50 ([5]; Influenza A/H1N1 row) was over 200 µM and the CC50 ([5]; Influenza A/H3N2 row) was 45 to 65 µM. For the same compound, the CC50 ([5]; Influenza B row) was 55 to 140 µM, the EC50 [6] was 95 µM and the EC50 [7] was 0.68 µM. The EC90 ([7]; read-out: Antiviral Efficacy EC90) was 1.73 µM, the CC50 at 4 days [8] was over 250 µM and the EC50 [9] was 13 µM. The EC50 [10] was 95 µM, the EC50 ([11]; Table 8c, read-out: EC50 CVB-2) was 11 µM and the EC50 ([11]; read-out: CVB-2 (Table 8b)) was 12 µM. The “L-Lactate (% of Control), HepG2 Cells” value ([12]; 50 μM, 4 days) was 138.0 ± 8.9 % of Control, the “increase in lactic acid production” value ([12]; HepG2, 50 μM) was 38% and the CC50 [13] was 2.4 µM. It also gave a CC50 [14] of at least 20 µg/mL, an EC50 ([15]; read-out: EC50, BVDV RNA levels) of 1.7 µM and an EC90 ([15]; read-out: EC90, BVDV RNA levels) of 2.3 µM. For the same compound, the “effect on level of rig S15 cellular mRNA control” value [16] was “No effect”, the CC50 [17] was over 50 µM and the CC50 ([18]; CC50, HFF, HCMV row) was 67 to 73 µg/mL. It also gave a CC50 ([18]; CC50, HFF, HSV-1 row) of over 100 µg/mL, a CC50 ([18]; CC50, HFF, HSV-2 row) of over 100 µg/mL and a CC50 ([18]; CC50, HFF, VZV row) of 67.8 µg/mL. For the same compound, the CC50 ([18]; CC50, rapidly proliferating HFF) was 16.9 µM, the EC50 [19] was 13 µM and the EC50 [20] was over 0.8 µM. The EC50 [21] was 25.5 µg/mL (≈ 99.1 µM), the EC50 [22] was 9 to 80 µM and the CC50 [23] was > 200 µM and 20 µg/mL to 30 µg/mL. The EC50 [24] was 46 to 97 µM, the CC50 [25] was over 50 µg/mL and the “Antiviral Efficacy EC4 log” value [26] was 6.03 ± 1.41 μM. It also gave an EC50 ([26]; Bovine viral diarrhea virus isolates and strains) of 0.3 ± 0.07 µM, an EC90 ([26]; Bovine viral diarrhea virus isolates and strains, read-out: Antiviral Efficacy EC90) of 0.87 ± 0.18 µM and an EC50 ([27]; 96 h, BVDV NADL cp, de novo infection, 4 days) of 0.67 ± 0.22 µM. For the same compound, the EC50 ([27]; BVDV MOI 0.16) was about 2.2 µM.

— patent publication US7582618B2 (priority 2002, dated 2009)
